# Where two headings read alike, the source gives them in different places.
# What was measured:
# [1] = In vivo pharmacokinetic study after intraperitoneal administration; set-up: species or system mouse; conditions: for half-life: 3 mg/kg
# Description: FIGS. 11(A-B) show in vivo pharmacokinetics in mice for a compound of the present invention. […] N=3 mice. Plasma collected serially at 0.167, 0.333. 0.5, 1, 3, and 8 hours post-administration. […] Individual data points (grey) shown alongside mean values with connecting lines.
# In vivo pharmacokinetic study—The pharmacokinetic study was carried out by a contract research organization, Pharmaron, Inc. Mice were housed with free access to food and water. All protocols and procedures were compliant with Animal care and Use Application approved by the Institution Animal Care and Use Committee of Pharmaron, Inc., (protocol #PH-DMPK-VUMC-22-003) following the guidance of the Association for Assessment and Accreditation of Laboratory Animal Care (AAALAC). An ent-B1 dose of 3 mg/kg (drug/body weight) was used. Three male CDI mice, age 6-8 weeks, were selected for the study. Mice were injected intraperitoneally with ent-B1 dissolved in solution containing 10% Tween 20, 10% DMSO, 40% water, and 40% PEG-400 (v/v, 5 mL/kg), with a final concentration of 0.6 mg/mL. 30 μL of blood was collected from each animal at 10, 20, 30, 60, 180, and 480 minutes following drug administration and centrifuged at 5000×g, 4° C. for 5 minutes to obtain plasma. The samples were stored at −75±15° C. until analysis.
# LC-MS/MS analysis of ent-B1—LC-MS/MS with electronspray ionization in the positive ion mode setting was used to detect ent-B1 followed by multiple reaction monitoring of precursor and product ions as follows: ent-B1 (mass-to-charge ratio [m/z] 640.18 to 214.00). Mouse plasma was quantified using nine standards (0.5-1000 ng/ml) and four quality control levels (1, 2, 50, 800 ng/ml) prepared independently of those used for the standard curve. 20 μL of standards, quality control samples, and unknown samples (10 μL plasma and 10 μL blank solution) were added to 200 μL acetonitrile containing internal standard (dexamethasone; [m/z] 393.40 to 373.30) for protein precipitation. The samples were vortexed for 30 seconds, centrifuged for 15 minutes at 4000 rpm and […], and the supernatant was diluted five times with water. Samples were then loaded into SIL-30AC autosampler and 10 μL was injected into a Shimadzu LC-30AD Series HPLC coupled to an AB Sciex Triple Quad 5500 mass spectrometer. Analytes were separated on a Raptor Biphenyl column (50×2.1 mm, 2.7 um) using a 95:5 (v/v) mobile phase mixture of 0.1% formic acid in water (mobile phase A) and 0.1% formic acid in acetonitrile (mobile phase B) at the flow rate of 0.6 ml/min. The gradient for mobile phase B was increased to 95% over 1.4 minutes with a total run time of 2.5 minutes for each sample. All quality controls and standards met the following acceptance criteria 1) standard curve of at least five standards are within 15% of their nominal concentrations and at least 50% at each quality control level (low, medium, and high) were within 15% of their nominal concentrations.
# Pharmacokinetic analysis—Plasma concentrations of ent-B1 at each time point were imported to Phoenix WinNonlin® 8.0 software (Certara USA, Inc., Princeton, NJ). Plasma concentration time profiles for individual animals were analyzed by noncompartmental analysis using model 200 (Plasma; Single Extravascular Dose; Linear Log Trapezoidal Method) to approximate the elimination rate constant (ke), half-life (T1/2), maximum observed plasma concentration (Cmax), time to maximum observed plasma concentration (Tmax), the area under the plasma concentration-time curve from zero to infinity (AUCinf).
# [2] = target: T1, RyR2 (Mus musculus, UniProt E9Q401); experiment: Calcium spark frequency in permeabilized Casq2 knockout cardiomyocytes (screen for RyR2 activity); format: cell-based
# T1 construct: spontaneous openings of intracellular RyR2 Ca^2+ release channels; endogenous in cells; host or cells: ventricular cardiomyocytes isolated from Casq2-/- mice (saponin-permeabilized in A1, intact in A7)
# T1 sequence (E9Q401 whole entry): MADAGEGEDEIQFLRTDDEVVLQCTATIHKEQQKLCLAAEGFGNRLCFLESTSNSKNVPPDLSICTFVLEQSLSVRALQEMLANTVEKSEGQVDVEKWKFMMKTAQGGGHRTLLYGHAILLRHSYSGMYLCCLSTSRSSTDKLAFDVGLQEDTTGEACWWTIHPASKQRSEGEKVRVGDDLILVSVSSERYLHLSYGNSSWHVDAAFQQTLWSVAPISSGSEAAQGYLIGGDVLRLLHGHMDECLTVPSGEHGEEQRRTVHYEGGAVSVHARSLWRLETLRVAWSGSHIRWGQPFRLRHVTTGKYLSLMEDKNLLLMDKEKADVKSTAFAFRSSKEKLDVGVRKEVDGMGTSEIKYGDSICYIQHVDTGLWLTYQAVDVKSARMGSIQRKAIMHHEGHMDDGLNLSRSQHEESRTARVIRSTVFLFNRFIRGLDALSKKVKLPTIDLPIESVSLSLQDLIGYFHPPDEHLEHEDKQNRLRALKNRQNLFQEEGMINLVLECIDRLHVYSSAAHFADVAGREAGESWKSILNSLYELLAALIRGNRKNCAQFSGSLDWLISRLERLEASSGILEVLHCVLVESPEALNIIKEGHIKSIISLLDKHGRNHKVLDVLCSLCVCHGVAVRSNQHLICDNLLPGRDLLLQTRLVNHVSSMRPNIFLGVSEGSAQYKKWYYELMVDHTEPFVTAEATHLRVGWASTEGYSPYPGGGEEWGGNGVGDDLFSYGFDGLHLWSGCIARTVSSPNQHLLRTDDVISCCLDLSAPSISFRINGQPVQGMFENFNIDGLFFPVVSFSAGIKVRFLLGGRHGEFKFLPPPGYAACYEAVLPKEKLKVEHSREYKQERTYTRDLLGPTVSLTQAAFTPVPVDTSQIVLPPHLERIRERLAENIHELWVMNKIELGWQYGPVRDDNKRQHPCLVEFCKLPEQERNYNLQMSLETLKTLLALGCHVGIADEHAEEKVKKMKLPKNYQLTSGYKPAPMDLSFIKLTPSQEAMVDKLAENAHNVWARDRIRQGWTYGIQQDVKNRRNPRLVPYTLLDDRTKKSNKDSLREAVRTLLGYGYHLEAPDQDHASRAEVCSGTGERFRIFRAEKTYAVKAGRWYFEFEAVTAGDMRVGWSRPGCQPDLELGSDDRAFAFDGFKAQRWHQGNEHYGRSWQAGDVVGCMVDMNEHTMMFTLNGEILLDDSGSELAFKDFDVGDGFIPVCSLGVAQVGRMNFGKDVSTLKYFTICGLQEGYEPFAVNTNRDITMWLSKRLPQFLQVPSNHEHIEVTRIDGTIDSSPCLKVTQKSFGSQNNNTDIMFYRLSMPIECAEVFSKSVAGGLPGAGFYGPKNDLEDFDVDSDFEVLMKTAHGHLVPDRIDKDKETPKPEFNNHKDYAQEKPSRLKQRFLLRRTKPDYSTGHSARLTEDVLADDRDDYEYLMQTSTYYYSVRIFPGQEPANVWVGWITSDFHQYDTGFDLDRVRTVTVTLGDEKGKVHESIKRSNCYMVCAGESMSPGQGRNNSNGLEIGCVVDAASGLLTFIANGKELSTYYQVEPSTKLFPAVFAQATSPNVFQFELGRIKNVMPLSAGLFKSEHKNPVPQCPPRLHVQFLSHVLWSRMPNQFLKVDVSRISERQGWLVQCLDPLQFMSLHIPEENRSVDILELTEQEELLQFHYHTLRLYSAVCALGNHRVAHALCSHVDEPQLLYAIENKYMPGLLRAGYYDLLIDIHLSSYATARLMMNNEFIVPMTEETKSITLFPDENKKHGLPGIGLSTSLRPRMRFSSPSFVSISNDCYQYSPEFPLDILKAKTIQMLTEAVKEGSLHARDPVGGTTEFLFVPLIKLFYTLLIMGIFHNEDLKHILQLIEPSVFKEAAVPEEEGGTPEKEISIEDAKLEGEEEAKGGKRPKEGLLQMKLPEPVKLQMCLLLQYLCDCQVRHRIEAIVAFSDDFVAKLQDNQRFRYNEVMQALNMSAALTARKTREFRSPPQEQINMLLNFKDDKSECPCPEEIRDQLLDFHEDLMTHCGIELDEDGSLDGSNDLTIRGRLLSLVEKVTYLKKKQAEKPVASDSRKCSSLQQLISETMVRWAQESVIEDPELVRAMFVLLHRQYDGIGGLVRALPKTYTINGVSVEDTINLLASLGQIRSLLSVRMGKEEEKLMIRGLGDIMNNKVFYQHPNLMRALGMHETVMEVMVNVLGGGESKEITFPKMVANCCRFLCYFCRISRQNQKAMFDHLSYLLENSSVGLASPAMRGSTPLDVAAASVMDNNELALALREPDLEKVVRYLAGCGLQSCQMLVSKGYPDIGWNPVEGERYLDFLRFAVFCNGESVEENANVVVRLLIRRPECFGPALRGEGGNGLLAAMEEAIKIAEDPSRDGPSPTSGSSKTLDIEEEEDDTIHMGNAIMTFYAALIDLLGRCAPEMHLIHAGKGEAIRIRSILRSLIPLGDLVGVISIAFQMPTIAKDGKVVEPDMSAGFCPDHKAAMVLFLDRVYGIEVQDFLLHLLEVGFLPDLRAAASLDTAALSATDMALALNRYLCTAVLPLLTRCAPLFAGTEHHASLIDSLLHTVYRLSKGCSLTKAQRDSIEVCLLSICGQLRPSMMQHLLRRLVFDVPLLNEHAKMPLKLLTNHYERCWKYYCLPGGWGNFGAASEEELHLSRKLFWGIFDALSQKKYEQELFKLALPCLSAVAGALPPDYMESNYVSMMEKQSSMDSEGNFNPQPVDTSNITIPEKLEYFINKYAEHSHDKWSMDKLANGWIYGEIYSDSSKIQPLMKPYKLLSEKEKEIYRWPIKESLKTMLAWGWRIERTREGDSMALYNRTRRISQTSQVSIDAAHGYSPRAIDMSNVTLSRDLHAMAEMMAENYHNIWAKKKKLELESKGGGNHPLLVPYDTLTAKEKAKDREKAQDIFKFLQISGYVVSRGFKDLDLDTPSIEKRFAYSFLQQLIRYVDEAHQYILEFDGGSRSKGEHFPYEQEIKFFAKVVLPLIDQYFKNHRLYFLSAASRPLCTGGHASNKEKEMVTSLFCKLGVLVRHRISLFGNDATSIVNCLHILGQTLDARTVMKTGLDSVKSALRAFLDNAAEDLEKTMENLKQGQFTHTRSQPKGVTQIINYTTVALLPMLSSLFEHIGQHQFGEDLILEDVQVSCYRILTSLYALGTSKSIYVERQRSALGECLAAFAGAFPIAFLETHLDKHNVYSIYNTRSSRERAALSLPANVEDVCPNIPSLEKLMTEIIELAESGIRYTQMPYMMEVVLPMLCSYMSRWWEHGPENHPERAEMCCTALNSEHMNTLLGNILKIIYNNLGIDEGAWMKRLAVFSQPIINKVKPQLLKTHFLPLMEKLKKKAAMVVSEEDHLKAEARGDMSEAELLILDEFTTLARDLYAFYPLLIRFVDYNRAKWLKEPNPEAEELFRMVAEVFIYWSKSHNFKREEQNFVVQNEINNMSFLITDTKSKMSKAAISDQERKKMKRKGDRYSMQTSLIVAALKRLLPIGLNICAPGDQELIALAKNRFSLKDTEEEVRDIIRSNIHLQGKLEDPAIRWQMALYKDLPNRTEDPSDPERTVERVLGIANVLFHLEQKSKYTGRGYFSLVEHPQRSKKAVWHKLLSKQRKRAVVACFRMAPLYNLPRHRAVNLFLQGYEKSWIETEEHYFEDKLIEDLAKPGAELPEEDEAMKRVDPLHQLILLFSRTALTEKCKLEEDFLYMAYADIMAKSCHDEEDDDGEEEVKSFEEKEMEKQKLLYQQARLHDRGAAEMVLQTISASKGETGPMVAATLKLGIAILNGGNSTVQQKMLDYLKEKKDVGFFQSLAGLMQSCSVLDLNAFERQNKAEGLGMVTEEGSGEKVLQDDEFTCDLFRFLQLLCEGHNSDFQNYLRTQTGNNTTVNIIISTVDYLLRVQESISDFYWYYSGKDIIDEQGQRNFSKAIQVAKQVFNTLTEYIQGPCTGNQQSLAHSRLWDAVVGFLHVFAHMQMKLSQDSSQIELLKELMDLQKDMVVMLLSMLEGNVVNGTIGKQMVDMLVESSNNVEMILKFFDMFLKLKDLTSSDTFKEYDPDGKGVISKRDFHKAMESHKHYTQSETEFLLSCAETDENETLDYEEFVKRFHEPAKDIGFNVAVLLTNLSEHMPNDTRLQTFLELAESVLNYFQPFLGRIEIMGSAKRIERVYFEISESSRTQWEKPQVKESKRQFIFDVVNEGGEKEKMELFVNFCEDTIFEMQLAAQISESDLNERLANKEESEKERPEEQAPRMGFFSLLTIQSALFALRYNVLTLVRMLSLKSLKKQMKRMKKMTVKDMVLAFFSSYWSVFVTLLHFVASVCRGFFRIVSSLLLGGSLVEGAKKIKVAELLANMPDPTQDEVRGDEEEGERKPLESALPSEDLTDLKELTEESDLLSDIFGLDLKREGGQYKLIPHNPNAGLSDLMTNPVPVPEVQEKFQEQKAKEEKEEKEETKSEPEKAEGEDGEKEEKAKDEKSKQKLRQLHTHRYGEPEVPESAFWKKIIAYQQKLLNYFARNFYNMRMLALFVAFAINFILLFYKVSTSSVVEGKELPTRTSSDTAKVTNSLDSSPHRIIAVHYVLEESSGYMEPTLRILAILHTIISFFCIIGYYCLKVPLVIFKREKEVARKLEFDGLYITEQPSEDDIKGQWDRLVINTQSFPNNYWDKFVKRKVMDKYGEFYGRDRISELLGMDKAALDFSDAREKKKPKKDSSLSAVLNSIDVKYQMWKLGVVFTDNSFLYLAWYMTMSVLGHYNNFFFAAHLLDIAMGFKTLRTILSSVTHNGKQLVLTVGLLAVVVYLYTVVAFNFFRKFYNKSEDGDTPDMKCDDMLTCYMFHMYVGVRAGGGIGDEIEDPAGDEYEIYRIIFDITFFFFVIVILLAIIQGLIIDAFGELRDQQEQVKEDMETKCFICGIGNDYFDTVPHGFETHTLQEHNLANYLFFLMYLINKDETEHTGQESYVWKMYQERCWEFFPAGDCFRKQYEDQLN
# Description: FIGS. 3(A)-3(E) show a biological screen for cardiac ryanodine receptor (RyR2) activity. Note that ‘ent-24’=9, and ‘ent-18’ refers to structure 8 in FIG. 1, which is also the enantiomer of a natural product. (3A) Calcium spark frequency in permeabilized murine cardiomyocytes was recorded as an index of RyR2 activity. Compounds were screened at 25 uM concentration after 10-minute incubation. *=p<0.001 by one-way ANOVA with Tukey's post-hoc test. (3B) Incubation time was extended to 60 minutes for the 12- and 30-membered rings. (3C) The seco-acid precursors to 12- and 18-membered rings were tested at 25 uM. (3D) Concentration response curve for the 18-membered ring and (3E) 24-membered ring. Cells were incubated for 30 minutes
# Activity of Ring-Size Analogues. […] Ventricular cardiomyocytes were isolated, permeabilized with saponin, and incubated with vehicle (DMSO) or 25 μM of selected compound. RyR2 activity was measured in the form of calcium sparks, which are elementary Ca^2+ release events generated by spontaneous openings of intracellular RyR2 Ca^2+ release channels. Importantly, saponin selectively permeabilizes the sarcolemmal membrane, leaving the SR membrane intact and ensuring equivalent access of the compounds to the SR membrane where RyR2 resides.
# The compounds were first screened by incubating cardiomyocytes for 10 minutes at 25 μM concentration and compared to vehicle (DMSO) conditions.
# [3] = male, mouse, plasma, ip, 3 mg/kg intraperitoneal, CD1 mice
structure (smiles),measurement,setting,value
"CCCCC[C@@H]1OC(=O)[C@@H](C)N(C)C(=O)[C@H](CCCCC)OC(=O)[C@@H](C)N(C)C(=O)[C@H](CCCCC)OC(=O)[C@@H](C)N(C)C1=O (single isomer, unassigned) [ent-B1]",time of peak plasma concentration after i.p. injection,[1]; 3 mg/kg i.p.,10 min
same,clinical observation during PK experiment,"[1]; 3 mg/kg i.p., CD1 mice",no abnormality
same,ke (elimination rate constant),"[1]; 3 mg/kg intraperitoneal, CD1 mice",0.932 ± 0.139 h⁻¹
same,half-life,"[1]; male, CD1, mouse, plasma, ip, 3 mg/kg i.p., mice, read-out: mean elimination half-life (t1/2)",45.4 min
same,half-life,"[1]; male, CD1, mouse, plasma, ip, 3 mg/kg intraperitoneal, CD1 mice, read-out: T1/2 (elimination half-life) (converted)",45.4 ± 7.38 min
same,Cmax,"[1]; male, CD1, mouse, plasma, ip, 3 mg/kg i.p., read-out: mean peak plasma concentration (Cmax)",2300 nM
same,Cmax,"[1]; male, mouse, ip, 3 mg/kg intraperitoneal, CD1 mice, plasma, read-out: Cmax",1460 ng/mL
same,AUC(0-inf),[1]; [3],1020 ± 184 ng·h/mL
same,CL/F,[1]; [3],50.2 mL/min/kg
same,Tmax,[1]; [3],10 min
same,Vd/F,"[1]; male, mouse, plasma, ip, 3 mg/kg intraperitoneal, CD1 mice, read-out: Vz/F",3.32 ± 1 L/kg
same,peak plasma concentration in vivo relative to IC50 in cardiomyocytes,"[1]; mouse, in vivo",more than 10 fold
same,RyR2-mediated Ca2+ spark frequency,"[2]; 25 μM, 10 minutes incubation, vs vehicle (DMSO)",significantly inhibited
same,activity in the calcium spark assay (summary statement),[2]; listed as 8,potent inhibitor
same,activity in the calcium spark assay (summary statement),[2]; listed as 18-membered COD,potent
